For `NC(=O)c1[nH]c2cnccc2c1-c1ccc(NC(=O)Nc2ccc(F)cc2)cc1` [Example 37, 3-{4-[3-(4-Fluorophenyl)ureido]phenyl}-1H-pyrrolo[2,3-c]-pyridine-2-carboxamide], the melting point was 271 °C.
`NC(=O)c1[nH]c2cnccc2c1-c1ccc(NC(=O)Nc2ccc(C(F)(F)F)cc2)cc1` [Example 38, 3-{4-[3-(4-Trifluoromethylphenyl)ureido]phenyl}-1H-pyrrolo-[2,3-c]pyridine-2-carboxamide] showed a melting point of 289 °C.
Work on `Cc1ccc(NC(=O)Nc2ccc(-c3c(C(N)=O)[nH]c4cnccc34)cc2)cc1` [Example 39, 3-[4-(3-p-Tolylureido)phenyl]-1H-pyrrolo[2,3-c]pyridine-2-carboxamide] yielded a melting point of 277 °C.
With `NC(=O)c1[nH]c2cnccc2c1-c1ccc(NC(=O)Nc2ccc(Cl)c(C(F)(F)F)c2)cc1` [Example 40, 3-{4-[3-(4-Chloro-3-trifluoromethylphenyl)ureido]phenyl}-1H-pyrrolo[2,3-c]pyridine-2-carboxamide] the melting point was 228 °C.
In the case of `NC(=O)c1[nH]c2cnccc2c1-c1ccc(NC(=O)Nc2cc(C(F)(F)F)ccc2Cl)cc1` [Example 41, 3-{4-[3-(2-Chloro-5-trifluoromethylphenyl)ureido]phenyl}-1H-pyrrolo[2,3-c]pyridine-2-carboxamide], the melting point is reported as 243 °C.
For `NC(=O)c1[nH]c2cnccc2c1-c1ccc(NC(=O)Nc2ccc(OC(F)(F)F)cc2)cc1` [Example 42, 3-{4-[3-(4-Trifluoromethoxyphenyl)ureido]phenyl}-1H-pyrrolo[2,3-c]pyridine-2-carboxamide], the melting point was 276 °C.
For `NC(=O)c1[nH]c2cnccc2c1-c1ccc(NC(=O)Nc2ccc(OC(F)F)cc2)cc1` [Example 43, 3-{4-[3-(4-Difluoromethoxyphenyl)ureido]phenyl}-1H-pyrrolo[2,3-c]pyridine-2-carboxamide], the melting point was 257 °C.
For `Cc1ccc(NC(=O)Nc2ccc(-c3c(C(N)=O)[nH]c4cnccc34)cc2)cc1C` [Example 44, 3-{4-[3-(3,4-Dimethylphenyl)ureido]phenyl}-1H-pyrrolo[2,3-c]pyridine-2-carboxamide], the melting point was 230 °C.
`COc1cc(NC(=O)Nc2ccc(-c3c(C(N)=O)[nH]c4cnccc34)cc2)cc(OC)c1` [Example 45, 3-{4-[3-(3,5-Dimethoxyphenyl)ureido]phenyl}-1H-pyrrolo-[2,3-c]pyridine-2-carboxamide] gave a melting point of 225 °C.
In the case of `Cc1ccc(C)c(NC(=O)Nc2ccc(-c3c(C(N)=O)[nH]c4cnccc34)cc2)c1` [Example 46, 3-{4-[3-(2,5-Dimethylphenyl)ureido]phenyl}-1H-pyrrolo[2,3-c]pyridine-2-carboxamide], the melting point is reported as 261 °C.
With `NC(=O)c1[nH]c2cnccc2c1-c1ccc(NC(=O)Nc2ccccc2F)cc1` [Example 47, 3-{4-[3-(2-Fluorophenyl)ureido]phenyl}-1H-pyrrolo[2,3-c]-pyridine-2-carboxamide] the melting point was 242 °C.
Molecule `NC(=O)c1[nH]c2cnccc2c1-c1ccc(NC(=O)Nc2cccc(F)c2)cc1` [Example 48, 3-{4-[3-(3-Fluorophenyl)ureido]phenyl}-1H-pyrrolo[2,3-c]-pyridine-2-carboxamide] has a melting point of 252 °C.
Work on `NC(=O)c1[nH]c2cnccc2c1-c1ccc(NC(=O)Nc2cccc(C(F)(F)F)c2F)cc1` [Example 49, 3-{4-[3-(2-Fluoro-3-trifluoromethylphenyl)ureido]phenyl}-1H-pyrrolo[2,3-c]pyridine-2-carboxamide] yielded a melting point of 240 °C.
With `NC(=O)c1[nH]c2cnccc2c1-c1ccc(NC(=O)Nc2cc(F)cc(C(F)(F)F)c2)cc1` [Example 50, 3-{4-[3-(3-Fluoro-5-trifluoromethylphenyl)ureido]phenyl}-1H-pyrrolo[2,3-c]pyridine-2-carboxamide] the melting point was 261 °C.
Work on `NC(=O)c1[nH]c2cnccc2c1-c1ccc(NC(=O)Nc2ccc(F)c(C(F)(F)F)c2)cc1` [Example 51, 3-{4-[3-(4-Fluoro-3-trifluoromethylphenyl)ureido]phenyl}-1H-pyrrolo[2,3-c]pyridine-2-carboxamide] yielded a melting point of 201 °C.
With `Cc1ccc(NC(=O)Nc2ccc(-c3c(C(N)=O)[nH]c4cnccc34)cc2)cc1C(F)(F)F` [Example 52, 3-{4-[3-(4-Methyl-3-trifluoromethylphenyl)ureido]phenyl}-1H-pyrrolo[2,3-c]pyridine-2-carboxamide] the melting point was 199 °C.
With `Cc1ccccc1NC(=O)Nc1ccc(-c2c(C(N)=O)[nH]c3cnccc23)cc1` [Example 56, 3-[4-(3-o-Tolylureido)phenyl]-1H-pyrrolo[2,3-c]pyridine-2-carboxamide] the melting point was 270 °C.
Work on `COc1ccc(NC(=O)Nc2ccc(-c3c(C(N)=O)[nH]c4cnccc34)cc2)cc1` [Example 57, 3-{4-[3-(4-Methoxyphenyl)ureido]phenyl}-1H-pyrrolo[2,3-c]pyridine-2-carboxamide] yielded a melting point of 275 °C.
`NC(=O)c1[nH]c2cnccc2c1-c1ccc(NC(=O)Nc2ccc(OC(F)F)c(Cl)c2)cc1` [Example 58, 3-{4-[3-(3-Chloro-4-difluoromethoxyphenyl)ureido]phenyl}-1H-pyrrolo[2,3-c]pyridine-2-carboxamide] gave a melting point of 267 °C.
`Cc1cc(C)cc(NC(=O)Nc2ccc(-c3c(C(N)=O)[nH]c4cnccc34)cc2)c1` [Example 59, 3-{4-[3-(3,5-Dimethylphenyl)ureido]phenyl}-1H-pyrrolo[2,3-c]pyridine-2-carboxamide] showed a melting point of 188 °C.
`CCc1cccc(NC(=O)Nc2ccc(-c3c(C(N)=O)[nH]c4cnccc34)cc2)c1` [Example 60, 3-{4-[3-(3-Ethylphenyl)ureido]phenyl}-1H-pyrrolo[2,3-c]-pyridine-2-carboxamide] showed a melting point of 257 °C.
`CCc1cccc(NC(=O)Nc2ccc(-c3c(C(N)=O)[nH]c4ncccc34)cc2)c1` [Example 61, 3-{4-[3-(3-Ethylphenyl)ureido]phenyl}-1H-pyrrolo[2,3-b]-pyridine-2-carboxamide] gave a melting point of 254 °C.

Reference: US7947706B2, “Substituted pyrrolopyridines, compositions containing them, manufacturing process therefor and use thereof” (Sanofi-Aventis Deutschland GmbH, priority 2005, dated 2011)
